Data published in ChEMBL document CHEMBL5385959, “Trifluoroacetic acid-mediated synthesis of xanthene constructs and their extensive anti-tuberculosis evaluation” (RSC Med Chem, 2024).
Values after ≈ are worked out from the molar mass of the structure shown. Active and inactive are the calls of the source. The rule behind the calls is not given here.

Key:
Pseudomonas aeruginosa = assay: Antibacterial activity against Pseudomonas aeruginosa assessed as reduction in bacterial growth incubated for 24 hrs by broth dilution method; type: functional
[1] = test system: Mycobacterium tuberculosis; assay: Antibacterial activity against Mycobacterium tuberculosis H37Ra assessed as reduction in bacterial growth incubated for 14 days by CLSI protocol based method; type: functional; settings: 336 h, time 14 day
Bacillus subtilis = assay: Antibacterial activity against Bacillus subtilis assessed as reduction in bacterial growth incubated for 24 hrs by broth dilution method; type: functional
Escherichia coli = assay: Antibacterial activity against Escherichia coli assessed as reduction in bacterial growth incubated for 24 hrs by broth dilution method; type: functional
[2] = test system: Mycobacterium tuberculosis; assay: Antibacterial activity against Mycobacterium tuberculosis H37Rv assessed as reduction in bacterial growth incubated for 14 days by CLSI protocol based method; type: functional; settings: 336 h, time 14 day
[3] = test system: Mycobacterium tuberculosis; assay: Antibacterial activity against GFP-tagged Mycobacterium tuberculosis H37Rv assessed as reduction in GFP expression at half times MIC incubated for 7 days by confocal microscopic analysis; type: functional, organism-based; settings: time 7.0 day
[4] = test system: Mycobacterium tuberculosis; assay: Synergistic antibacterial activity against Mycobacterium tuberculosis H37Rv assessed as isoniazid MIC by broth microdilution method; type: functional
[5] = test system: Mycobacterium tuberculosis; assay: Synergistic antibacterial activity against Mycobacterium tuberculosis H37Rv assessed as rifampicin MIC by broth microdilution method; type: functional
A549 = assay: Cytotoxicity against human A549 cells assessed as reduction in cell viability at 200 uM incubated for 48 hrs by MTT assay; type: functional
[6] = test system: Mycobacterium tuberculosis; assay: Synergistic antibacterial activity against Mycobacterium tuberculosis H37Rv assessed as reduction in microbial growth in presence of ethambutol by broth microdilution method; type: functional
[7] = test system: Mycobacterium tuberculosis; assay: Synergistic antibacterial activity against Mycobacterium tuberculosis H37Rv assessed as reduction in microbial growth in presence of rifampicin by broth microdilution method; type: functional
[8] = test system: Mycobacterium tuberculosis; assay: Bactericidal activity Mycobacterium tuberculosis H37Rv assessed as reduction in bacterial growth incubated for 2 days by time kill assay; type: functional; settings: 48 h, time 2 day
[9] = test system: Mycobacterium tuberculosis; assay: Bactericidal activity Mycobacterium tuberculosis H37Rv assessed as log reduction in CFU at 16 times MIC incubated for 2 to 6 days by time kill assay; type: functional; settings: time 2-6 day
[10] = test system: Mycobacterium tuberculosis; assay: Bactericidal activity Mycobacterium tuberculosis H37Rv assessed as log reduction in CFU incubated for 2 days by time kill assay; type: functional; settings: time 2 day
[11] = Cytotoxicity against mouse RAW 264 cells assessed as reduction in cell viability at 150 uM incubated for 48 hrs by MTT assay; type: functional
HEK293 = assay: Cytotoxicity against HEK293 cells assessed as reduction in cell viability at 100 uM incubated for 48 hrs by MTT assay; type: toxicity, cell-based; settings: human, hek293, 48 h
[12] = test system: Mycobacterium tuberculosis; assay: Synergistic antibacterial activity against Mycobacterium tuberculosis H37Rv assessed as reduction in microbial growth in presence of isoniazid by broth microdilution method; type: functional
[13] = test system: Mycobacterium tuberculosis; assay: Synergistic antibacterial activity against Mycobacterium tuberculosis H37Rv assessed as ethambutol MIC by broth microdilution method; type: functional
[14] = test system: Mycobacterium tuberculosis; assay: Bactericidal activity Mycobacterium tuberculosis H37Rv by time kill assay; type: functional, organism-based; settings: time 16.0 day
[15] = test system: Mycobacterium tuberculosis; assay: Antibacterial activity against Mycobacterium tuberculosis H37Rv assessed as reduction in bacterial growth by broth microdilution method; type: functional
[16] = test system: Mycobacterium tuberculosis; assay: Bactericidal activity Mycobacterium tuberculosis H37Rv assessed as log reduction in CFU at 16 times MIC incubated for 8 days by time kill assay; type: functional; settings: time 8 day
[17] = test system: Mycobacterium tuberculosis; assay: Bactericidal activity Mycobacterium tuberculosis assessed as reduction in bacterial growth incubated for 28 days by broth microdilution method; type: functional; settings: 672 h, time 28 day
[18] = test system: Mycobacterium tuberculosis; assay: Bactericidal activity Mycobacterium tuberculosis H37Rv assessed as log reduction in CFU at 2 times MIC incubated for 2 days by time kill assay; type: functional; settings: time 2 day
[19] = test system: Mycobacterium tuberculosis; assay: Bactericidal activity Mycobacterium tuberculosis H37Rv assessed as log reduction in CFU at 2 times MIC incubated for 5 to 10 days by time kill assay; type: functional, organism-based; settings: time 5-10 day
[20] = test system: Mycobacterium tuberculosis; assay: Bactericidal activity Mycobacterium tuberculosis H37Rv at 4 times MIC incubated for 7 days by time kill assay; type: functional, organism-based; settings: time 7.0 day
[21] = test system: Mycobacterium tuberculosis; assay: Bactericidal activity Mycobacterium tuberculosis H37Rv incubated for 15 days by time kill assay; type: functional, organism-based; settings: time 15.0 day
[22] = test system: Mycobacterium tuberculosis; assay: Synergistic antibacterial activity against Mycobacterium tuberculosis H37Rv assessed as log reduction in CFU measured for 2 days in presence of isoniazid by time kill assay; type: functional; settings: time 2 day
[23] = test system: Mycobacterium tuberculosis; assay: Synergistic antibacterial activity against Mycobacterium tuberculosis H37Rv assessed as log reduction in CFU measured for 4 days in presence of isoniazid by time kill assay; type: functional; settings: time 4 day
[24] = test system: Mycobacterium tuberculosis; assay: Bactericidal activity Mycobacterium tuberculosis H37Rv incubated for 2 days by time kill assay; type: functional, organism-based; settings: time 2.0 day

Row | Compound | MIC (Pseudomonas aeruginosa) [µg/mL] | MIC [1] [µg/mL] | MIC (Bacillus subtilis) [µg/mL] | MIC (Escherichia coli) [µg/mL] | MIC [2] [µg/mL] | also measured
1 | COc1cc(C2C3=C(CCCC3=O)OC3=C2C(=O)CCC3)ccc1O | > 128 | 64 (≈ 188 µM) | > 128 | > 128 | 64 (≈ 188 µM) | 
2 | COc1cccc(C2C3=C(CCCC3=O)OC3=C2C(=O)CCC3)c1 | > 128 | 8 (≈ 24.7 µM) | > 128 | > 128 | 8 (≈ 24.7 µM) | Activity [3]: Active; MIC [4]: 0.078 µg/mL; MIC [5]: 0.009 µg/mL; Activity (A549): >75%; MIC [6]: 0.25 µg/mL; MIC [7]: 0.5 µg/mL; MIC [8]: 8 µg/mL (≈ 24.7 µM); Activity [9]: 2 log10CFU; Activity [10]: >2 log10CFU; Activity [11]: >75%; Activity (HEK293): > 75%; MIC [12]: 0.25 µg/mL; MIC [13]: 0.312 µg/mL; Activity [14]: Dose-Dependent Effect; MIC [15]: 8 µg/mL (≈ 24.7 µM); Activity [16]: 5 log10CFU; MBC [17]: 8 µg/mL (≈ 24.7 µM)
3 | O=C1CCCC2=C1C(c1ccc([N+](=O)[O-])cc1[N+](=O)[O-])C1=C(CCCC1=O)O2 | > 128 | 64 (≈ 167 µM) | > 128 | > 128 | 64 (≈ 167 µM) | 
4 | CC[C@@H](CO)NCCN[C@@H](CC)CO [ETHAMBUTOL] |  | 0.019 (≈ 0.093 µM) |  |  | 1.25 (≈ 6.12 µM) | Activity [3]: Active; MIC [15]: 8 µg/mL (≈ 39.2 µM)
5 | CC1(C)CC(=O)C2=C(C1)OC(N)=C(C#N)C2c1cccc(O)c1 (stereo unspecified) |  |  |  |  | > 64 | 
6 | O=C1CCCC2=C1C(c1cccc(F)c1)C1=C(CCCC1=O)O2 | > 128 | 64 (≈ 205 µM) | > 128 | > 128 | 64 (≈ 205 µM) | 
7 | CC1(C)CC(=O)C2=C(C1)OC1=C(C(=O)CC(C)(C)C1)C2c1cccc(O)c1 | > 128 | 64 (≈ 175 µM) | > 128 | > 128 | 64 (≈ 175 µM) | 
8 | O=C1CCCC2=C1C(c1cccc(O)c1)C1=C(CCCC1=O)O2 | > 128 | 64 (≈ 206 µM) | > 128 | > 128 | 64 (≈ 206 µM) | 
9 | NNC(=O)c1ccncc1 [ISONIAZID] |  | 0.019 (≈ 0.139 µM) |  |  | 0.625 (≈ 4.56 µM) | Activity [3]: Active; MIC [15]: 8 µg/mL (≈ 58.3 µM)
10 | CC1(C)CC(=O)C2=C(C1)OC1=C(C(=O)CC(C)(C)C1)C2c1ccc(O)cc1 | > 128 | 64 (≈ 175 µM) | > 128 | > 128 | 64 (≈ 175 µM) | 
11 | Cc1cccc(C2C3=C(CCCC3=O)OC3=C2C(=O)CCC3)c1 | > 128 | 64 (≈ 208 µM) | > 128 | > 128 | 64 (≈ 208 µM) | 
12 | CC1(C)CC(=O)C2=C(C1)OC1=C(C(=O)CC(C)(C)C1)C2c1ccccc1 | > 128 | 8 (≈ 22.8 µM) | > 128 | > 128 | 8 (≈ 22.8 µM) | Activity [3]: Active; MIC [4]: 0.078 µg/mL; MIC [5]: 0.009 µg/mL; Activity (A549): >75%; MIC [6]: 0.25 µg/mL; MIC [7]: 0.009 µg/mL; Activity [18]: 3 log10CFU; Activity [19]: Active; MIC [8]: 8 µg/mL (≈ 22.8 µM); Activity [11]: >75%; Activity (HEK293): > 75%; Activity [20]: Active; Activity [21]: inactive; MIC [12]: 0.078 µg/mL; MIC [13]: 0.312 µg/mL; MIC [15]: 8 µg/mL (≈ 22.8 µM); Activity [22]: 2 log10CFU; Activity [23]: 1 log10CFU; Activity [24]: Active; MBC [17]: 8 µg/mL (≈ 22.8 µM)
13 | O=C1CCCC2=C1C(c1ccccc1)C1=C(CCCC1=O)O2 | > 128 | 64 (≈ 217 µM) | > 128 | > 128 | 64 (≈ 217 µM) | 
14 | O=C1CCCC2=C1C(c1ccc([N+](=O)[O-])cc1)C1=C(CCCC1=O)O2 | > 128 | 64 (≈ 189 µM) | > 128 | > 128 | 64 (≈ 189 µM) | 
15 | CC1(C)CC(=O)C2=C(C1)OC1=C(C(=O)CC(C)(C)C1)C2c1cccc(Cl)c1 | > 128 | 64 (≈ 166 µM) | > 128 | > 128 | 64 (≈ 166 µM) | 
16 | O=C1CCCC2=C1C(c1cccc(Cl)c1)C1=C(CCCC1=O)O2 | > 128 | 64 (≈ 195 µM) | > 128 | > 128 | 64 (≈ 195 µM) | 
